For twelve compounds, ED (100% increase in survival time) results are on record in EP0001940A1, “Derivatives of eburnamenine, their preparation and their therapeutical application” (SYNTHELABO, priority 1977, dated 1979).

The structures appear in SMILES notation.

In the test the test system is souris de souche CDl. Put plainly: Hypobaric anoxia survival time test (Anoxie hypobare). In kind it is in vivo. To be noted: Mus musculus, ip; mean active dose = dose increasing survival time by 100% vs controls, determined graphically; mice, i.p. before the test; 190 mm Hg (5,25% oxygen); read-out: Anoxie hypobare DAM - i.p. The text has this:
Des souris de souche CDl sont maintenues dans une atmosphère appauvrie en oxygène, par réalisation d'un vide partiel (190mm de mercure correspondant à 5,25% d'oxygène).
Le temps de survie des animaux est noté. Ce temps est augmenté par les agents capables de favoriser l'oxygénation tissulaire et en particulier cérébrale. Les composés étudiés sont administrés, à plusieurs doses, par voie intrapéritonéale, […] avant l'essai. Les pourcentages d'augmentation du temps de survie par rapport aux valeurs obtenues chez les animaux témoins sont calculés. La dose active moyenne (DAM), dose qui augmente le temps de survie de 100% est déterminée graphiquement
Les résultats sont indiqués dans le tableau II suivant pour un nombre représentatif de composés.

`CCC12CCCN3CCc4c(n(c5cccc(Br)c45)C(C(=O)OC)C1)C32` (stereo not drawn) [compound 1, bromo-9 désoxyvincamine]: the ED (100% increase in survival time) came out at 8 mg/kg. With `CCC12CCCN3CCc4c(n(c5ccc(Br)cc45)C(C(=O)OC)C1)C32` (stereo not drawn) [compound 2, bromo-10 désoxyvincamine] the figure was 3 mg/kg; with `CCOC(=O)C1CC2(CC)CCCN3CCc4c(n1c1cccc(Br)c41)C32` (stereo not drawn) [compound 3], 8 mg/kg. Take `CCOC(=O)C1CC2(CC)CCCN3CCc4c(n1c1ccc(Br)cc41)C32` (stereo not drawn) [compound 4]: the ED (100% increase in survival time) is 1 mg/kg. With `CCC12CCCN3CCc4c(n(c5ccc(Br)cc45)C(C(=O)OC(C)C)C1)C32` (stereo not drawn) [compound 5] the figure was 3 mg/kg; with `CCC12CCCN3CCc4c(n(c5ccc(Br)cc45)C(C(N)=O)C1)C32` (stereo not drawn) [compound 6, Bromo-10 désoxyvincaminamide], 1 mg/kg; with `CCC12CCCN3CCc4c(n(c5ccc(Br)cc45)C(C(=O)NC)C1)C32` (stereo not drawn) [compound 7], 2 mg/kg. The figure for `CCN(CC)C(=O)C1CC2(CC)CCCN3CCc4c(n1c1ccc(Br)cc41)C32` (stereo not drawn) [compound 8] is 4 mg/kg. With `CCC12CCCN3CCc4c(n(c5ccc(Br)cc45)C(C(=O)NC4CC4)C1)C32` (stereo not drawn) [compound 9] the figure was 0.5 to 1 mg/kg. As to `CCCCOC(=O)C1(O)CC2(CC)CCCN3CCc4c(n1c1ccc(Br)cc41)C32` (stereo not drawn) [compound 13, bromo-10 vincaminate de n-butyle], the ED (100% increase in survival time) is 3 to 4 mg/kg. The figure for `CCOC(=O)C1(O)CC2(CC)CCCN3CCc4c(n1c1ccc(Br)cc41)C32` (stereo not drawn) [compound 14] is 3 mg/kg; for `CCOC(=O)C1=CC2(CC)CCCN3CCc4c(n1c1ccc(Br)cc41)C32` (stereo not drawn) [compound 18] it is 7 mg/kg.
